Measured values published in PubChem BioAssay (NCI).
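Interpolation was linear, between the two tested concentrations surrounding the appropriate level; five concentrations were tested over 48 hours in 96-well plates. Here, GI50 denotes the concentration required for 50% inhibition of growth. TGI: total growth inhibition.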

What was measured:
Assay in all cases: growth of human tumour cells (NCI), 48 h
HOP-62 NSCLC = test system: HOP-62 NSCLC
K-562 leukemia = test system: K-562 leukemia
MALME-3M melanoma = test system: MALME-3M melanoma
MDA-MB-435 = test system: MDA-MB-435
NCI/ADR-RES ovarian = test system: NCI/ADR-RES ovarian
OVCAR-3 ovarian = test system: OVCAR-3 ovarian
OVCAR-4 ovarian = test system: OVCAR-4 ovarian
BT-549 breast = test system: BT-549 breast
NCI-H460 lung = test system: NCI-H460 lung
SR leukemia = test system: SR leukemia

## CCNCC(=O)Nc1ccc2c(c1)C(=O)c1ccc(NC(=O)CNCC)cc1C2=O
HOP-62 NSCLC
  TGI: 20 µM
K-562 leukemia
  TGI: 4.91 µM
MALME-3M melanoma
  TGI: 33 µM
MDA-MB-435
  TGI: 6.18 µM
NCI/ADR-RES ovarian
  TGI: 28.3 µM
OVCAR-3 ovarian
  TGI: 8.74 µM
OVCAR-4 ovarian
  TGI: 2.24 µM

## COC(=O)c1c2c(c(C)[n+]([O-])c1C)C(=O)C(NCc1ccccc1)=CC2=O
BT-549 breast
  GI50: 4.19 µM
  TGI: 16 µM
HOP-62 NSCLC
  GI50: 3.1 µM
  TGI: 17.9 µM
K-562 leukemia
  GI50: 2.94 µM
  TGI: 16.3 µM
MALME-3M melanoma
  GI50: 0.617 µM
  TGI: 1.88 µM
MDA-MB-435
  GI50: 1.81 µM
  TGI: 3.3 µM
NCI-H460 lung
  GI50: 2.74 µM
  TGI: 10.9 µM
OVCAR-3 ovarian
  GI50: 0.613 µM
  TGI: 3.67 µM
OVCAR-4 ovarian
  GI50: 1.13 µM
  TGI: 2.4 µM
SR leukemia
  GI50: 3 µM
  TGI: 31.4 µM

## Cc1nc2ccccc2c(=O)n1/N=C(\N=Nc1ccccc1)c1ccccc1Cl
HOP-62 NSCLC
  TGI: > 100 µM
K-562 leukemia
  TGI: > 100 µM
MALME-3M melanoma
  TGI: > 100 µM
NCI-H460 lung
  TGI: > 100 µM
OVCAR-3 ovarian
  TGI: > 100 µM
OVCAR-4 ovarian
  TGI: > 100 µM

## COc1cc2c3c(n(CCCN=[N+]=[N-])c(=O)c2cc1OC)-c1ccccc1C3=O
BT-549 breast
  GI50: 24.4 µM
  TGI: > 100 µM
HOP-62 NSCLC
  GI50: 3.53 µM
  TGI: 43.1 µM
K-562 leukemia
  GI50: 3.48 µM
  TGI: > 100 µM
MDA-MB-435
  GI50: 9.81 µM
  TGI: 83.9 µM
NCI-H460 lung
  GI50: 5.2 µM
  TGI: > 100 µM
NCI/ADR-RES ovarian
  GI50: 4.59 µM
  TGI: 75.2 µM
OVCAR-3 ovarian
  GI50: 4.58 µM
  TGI: 24.5 µM
OVCAR-4 ovarian
  GI50: 22.6 µM
  TGI: > 100 µM

## Clc1ccc(-c2cnc3c(-c4ccnc(N5CCNCC5)c4)cnn3c2)cc1
BT-549 breast
  GI50: 1.6 µM
  TGI: 3.02 µM
HOP-62 NSCLC
  GI50: 1.92 µM
  TGI: 3.38 µM
K-562 leukemia
  GI50: 1.84 µM
  TGI: 3.74 µM
MALME-3M melanoma
  GI50: 1.86 µM
  TGI: 3.31 µM
MDA-MB-435
  GI50: 1.89 µM
  TGI: 3.72 µM
NCI-H460 lung
  GI50: 1.89 µM
  TGI: 3.53 µM
OVCAR-3 ovarian
  GI50: 1.96 µM
  TGI: 3.42 µM
OVCAR-4 ovarian
  GI50: 1.61 µM
  TGI: 3.09 µM
SR leukemia
  GI50: 1.6 µM
  TGI: 4.58 µM

## OCC1OC(N2C=C(c3nc4ccccc4s3)C3C=CC=CC32)C(O)C(O)C1O (stereo not given)
BT-549 breast
  GI50: 16.5 µM
  TGI: > 50 µM
HOP-62 NSCLC
  GI50: 20.8 µM
  TGI: > 50 µM
K-562 leukemia
  GI50: 19 µM
  TGI: > 50 µM
MDA-MB-435
  GI50: 11.8 µM
  TGI: 28.1 µM
NCI-H460 lung
  GI50: 24 µM
  TGI: > 50 µM
NCI/ADR-RES ovarian
  GI50: > 50 µM
  TGI: > 50 µM
OVCAR-3 ovarian
  GI50: 14.9 µM
  TGI: > 50 µM
SR leukemia
  GI50: 15.9 µM
  TGI: > 50 µM

## O/N=C1/CCCC/C1=C\c1ccc(Cl)c(Cl)c1
HOP-62 NSCLC
  TGI: > 100 µM
K-562 leukemia
  TGI: > 100 µM
NCI-H460 lung
  TGI: 57.1 µM
OVCAR-3 ovarian
  TGI: 49.7 µM
OVCAR-4 ovarian
  TGI: 59.3 µM

## O=CCCn1[nH]c(=O)ccc1=O
K-562 leukemia
  TGI: > 100 µM
MALME-3M melanoma
  TGI: > 100 µM
NCI-H460 lung
  TGI: > 100 µM
OVCAR-3 ovarian
  TGI: > 100 µM
OVCAR-4 ovarian
  TGI: > 100 µM
SR leukemia
  TGI: > 100 µM

## O=C1CCCc2ccc([N+](=O)[O-])c(O)c21
HOP-62 NSCLC
  TGI: > 100 µM
K-562 leukemia
  TGI: > 100 µM
MALME-3M melanoma
  TGI: > 100 µM
NCI-H460 lung
  TGI: > 100 µM
OVCAR-3 ovarian
  TGI: > 100 µM
OVCAR-4 ovarian
  TGI: > 100 µM
SR leukemia
  TGI: > 100 µM

## COc1ccc(C(=O)/C=C/c2cc(-c3ccc(OC)c(OC)c3)n[nH]2)cc1OC
BT-549 breast
  GI50: 1.44 µM
  TGI: 2.92 µM
HOP-62 NSCLC
  GI50: 1.73 µM
  TGI: 5.6 µM
K-562 leukemia
  GI50: 0.619 µM
  TGI: > 100 µM
MALME-3M melanoma
  GI50: 2.59 µM
  TGI: 6.21 µM
NCI-H460 lung
  GI50: 0.606 µM
  TGI: 4.36 µM
NCI/ADR-RES ovarian
  GI50: 3.43 µM
  TGI: 33.1 µM
OVCAR-3 ovarian
  GI50: 1.96 µM
  TGI: 4.72 µM
OVCAR-4 ovarian
  GI50: 1.92 µM
  TGI: 8.15 µM
